PMC5572761 (Journal of medicinal chemistry, 2017)
Where a SMILES comes first, the peptide text is derived from it. Bridges are numbered along the chain shown (N, C = ends).

What was measured:
rat α3β4 nAChR = rat α3β4 nAChR (Rattus norvegicus, UniProt P04757+P12392); format: cell-based
rat α6/α3β4 nAChR = rat α6/α3β4 nAChR (Rattus norvegicus, UniProt P04757+P12392+P43143); format: cell-based
rat α6/α3β4 nAChR, sequence (P04757 whole entry, looked up): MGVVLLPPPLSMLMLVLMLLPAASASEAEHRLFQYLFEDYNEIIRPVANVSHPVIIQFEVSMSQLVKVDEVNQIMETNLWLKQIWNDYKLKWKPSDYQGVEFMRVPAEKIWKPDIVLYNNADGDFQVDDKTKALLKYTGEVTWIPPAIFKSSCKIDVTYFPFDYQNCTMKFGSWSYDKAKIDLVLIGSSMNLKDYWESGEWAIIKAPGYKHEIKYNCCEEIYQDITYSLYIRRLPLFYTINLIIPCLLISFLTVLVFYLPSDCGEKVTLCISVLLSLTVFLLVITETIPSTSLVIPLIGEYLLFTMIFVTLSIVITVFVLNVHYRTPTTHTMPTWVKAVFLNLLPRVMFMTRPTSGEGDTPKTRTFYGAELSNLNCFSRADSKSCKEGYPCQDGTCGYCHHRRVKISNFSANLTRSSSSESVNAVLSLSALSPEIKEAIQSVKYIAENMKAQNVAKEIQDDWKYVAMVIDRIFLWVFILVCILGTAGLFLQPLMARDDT
rat α6/α3β4 nAChR, sequence (P12392 whole entry, looked up): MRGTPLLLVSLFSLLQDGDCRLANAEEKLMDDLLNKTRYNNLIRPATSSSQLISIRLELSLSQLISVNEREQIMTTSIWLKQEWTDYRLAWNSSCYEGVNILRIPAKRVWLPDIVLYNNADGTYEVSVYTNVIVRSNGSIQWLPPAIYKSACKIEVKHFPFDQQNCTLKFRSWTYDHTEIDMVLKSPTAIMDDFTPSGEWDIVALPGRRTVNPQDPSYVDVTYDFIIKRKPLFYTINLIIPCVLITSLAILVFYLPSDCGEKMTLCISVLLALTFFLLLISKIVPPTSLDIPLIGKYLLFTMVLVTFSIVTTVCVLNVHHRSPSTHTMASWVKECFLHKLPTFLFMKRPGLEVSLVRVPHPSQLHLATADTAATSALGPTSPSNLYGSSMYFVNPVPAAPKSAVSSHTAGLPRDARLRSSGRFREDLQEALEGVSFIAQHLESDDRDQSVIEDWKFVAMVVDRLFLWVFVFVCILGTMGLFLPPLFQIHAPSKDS
rat α6/α3β4 nAChR, sequence (P43143 whole entry, looked up): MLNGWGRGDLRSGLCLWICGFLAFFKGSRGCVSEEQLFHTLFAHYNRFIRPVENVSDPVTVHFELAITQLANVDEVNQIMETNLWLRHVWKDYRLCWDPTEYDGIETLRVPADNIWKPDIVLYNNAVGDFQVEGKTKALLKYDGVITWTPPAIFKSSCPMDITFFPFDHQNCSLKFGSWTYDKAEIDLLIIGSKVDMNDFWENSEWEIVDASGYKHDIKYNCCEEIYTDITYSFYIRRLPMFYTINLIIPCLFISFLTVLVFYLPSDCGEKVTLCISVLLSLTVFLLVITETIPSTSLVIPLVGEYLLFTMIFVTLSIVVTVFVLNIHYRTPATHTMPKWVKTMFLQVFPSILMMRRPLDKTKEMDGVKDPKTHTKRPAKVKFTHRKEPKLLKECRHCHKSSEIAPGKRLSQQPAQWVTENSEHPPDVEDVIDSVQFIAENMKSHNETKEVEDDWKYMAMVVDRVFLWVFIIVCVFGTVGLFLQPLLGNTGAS

rat α3β4 nAChR, sequence (P04757 26-499 limits assumed): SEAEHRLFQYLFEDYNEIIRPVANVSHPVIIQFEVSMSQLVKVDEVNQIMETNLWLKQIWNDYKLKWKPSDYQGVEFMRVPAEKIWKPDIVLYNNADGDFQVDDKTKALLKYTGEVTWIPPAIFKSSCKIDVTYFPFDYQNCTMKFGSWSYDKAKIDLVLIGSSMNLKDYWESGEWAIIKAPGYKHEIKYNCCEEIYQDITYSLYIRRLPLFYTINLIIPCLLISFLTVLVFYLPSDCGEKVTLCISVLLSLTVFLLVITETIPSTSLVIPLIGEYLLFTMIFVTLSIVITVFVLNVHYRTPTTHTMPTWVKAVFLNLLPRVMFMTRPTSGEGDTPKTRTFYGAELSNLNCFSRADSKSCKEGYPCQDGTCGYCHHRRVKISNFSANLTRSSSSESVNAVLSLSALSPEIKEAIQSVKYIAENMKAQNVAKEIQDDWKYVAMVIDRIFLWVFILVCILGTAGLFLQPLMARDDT
rat α3β4 nAChR, sequence (P12392 21-495 limits assumed): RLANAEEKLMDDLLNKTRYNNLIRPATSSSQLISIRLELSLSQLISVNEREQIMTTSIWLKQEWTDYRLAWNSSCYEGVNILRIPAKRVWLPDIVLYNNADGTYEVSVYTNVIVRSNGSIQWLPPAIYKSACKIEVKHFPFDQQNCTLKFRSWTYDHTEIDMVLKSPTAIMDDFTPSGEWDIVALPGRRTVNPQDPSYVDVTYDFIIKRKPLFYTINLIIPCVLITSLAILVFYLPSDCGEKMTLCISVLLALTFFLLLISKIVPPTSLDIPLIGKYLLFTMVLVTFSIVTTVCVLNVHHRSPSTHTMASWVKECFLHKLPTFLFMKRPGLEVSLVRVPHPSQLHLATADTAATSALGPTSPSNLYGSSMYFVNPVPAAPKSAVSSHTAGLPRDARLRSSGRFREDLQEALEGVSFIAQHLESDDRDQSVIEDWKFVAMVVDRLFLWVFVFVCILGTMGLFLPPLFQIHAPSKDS

SMILES: CSCC[C@@H]1NC(=O)[C@H](C)NC(=O)[C@H](CO)NC(=O)[C@@H]2CSSC[C@H](NC(=O)CN)C(=O)N[C@@H](CSSC[C@@H](C(N)=O)NC(=O)[C@H](C)NC(=O)[C@@H]3CCCN3C(=O)[C@H](CO)NC1=O)C(=O)N[C@@H](CO)C(=O)N[C@@H](Cc1c[nH]cn1)C(=O)N1CCC[C@H]1C(=O)N[C@@H](C(C)C)C(=O)N2 [Peptide 11] (H-GCCSHPVCSAMSPAC-NH2; disulfide 2-8, 3-15)
- Hill slope n^H α3β4 (rat α3β4 nAChR): 1.05 (0.39–1.70)
- α3β4 IC50 ratio relative to 1 (rat α3β4 nAChR): 4.4
- Hill slope n^H α6/α3β4 (rat α6/α3β4 nAChR): 1.04 (0.77–1.32)
- α6/α3β4 IC50 ratio relative to 1 (rat α6/α3β4 nAChR): 1.3

SMILES: CSCC[C@@H]1NC(=O)[C@H](C)NC(=O)[C@H](CO)NC(=O)[C@@H]2CSSC[C@H](NC(=O)CN)C(=O)N[C@@H](CSSC[C@@H](C(N)=O)NC(=O)[C@H](CC(=O)O)NC(=O)[C@@H]3CCCN3C(=O)[C@H](CO)NC1=O)C(=O)N[C@@H](CO)C(=O)N[C@@H](Cc1c[nH]cn1)C(=O)N1CCC[C@H]1C(=O)N[C@@H](C(C)C)C(=O)N2 [Peptide 14] (H-GCCSHPVCSAMSPDC-NH2; disulfide 2-8, 3-15)
- Hill slope n^H α3β4 (rat α3β4 nAChR): 1.33 (0.387–2.26)
- α3β4 IC50 ratio relative to 1 (rat α3β4 nAChR): 2.7
- Hill slope n^H α6/α3β4 (rat α6/α3β4 nAChR): 0.84 (0.69–0.98)
- α6/α3β4 IC50 ratio relative to 1 (rat α6/α3β4 nAChR): 1.2
